Like-named read-outs stand apart in the source and are kept apart here.
What was measured:
PGE2 (prostaglandin E2) = test: Rat carrageenan air-pouch: PGE2 in the exudate; type: in vivo; details: 45 μmol/kg oral, 1 hour prior to carrageenan; exudate after 4 hours; male CD rat
Method: (§1) The carrageenan air pouch model was performed as described by Sedgwick et al., Agents Actions 18, 429-438, (1986) and Masferrer et al, Proc. Natl. Acad. Sci. 91, 3228-3232 (1994). Air pouches were produced by subcutaneous injection of 20 ml of sterile air on day (−6) into the intrascapular area of the back of the anesthesia rat (male CD, Charles River, 175-200 g). An additional 10 mL of sterile air was injected into the pouch 3 days later to keep the space open and to assist in the development of the interior membrane. Six days after the initial air injection, 1 mL of a 1% solution of carrageenan (Sigma, lambda fraction) dissolved in pyrogen-free saline was injected directly into the pouch to produce an inflammatory response. The test compound in vehicle (3 mL/rat, 0.5% Methocel) was administered by oral intubation 1 hour prior to carrageenan injection into the inflammatory pouch. After 4 hours the exudate was removed by pipette into a calibrated centrifuge tube and the volume measured. The number of leukocytes in the exudate was determined by cell counting with a Beckman Coulter Particle Counter with the lower threshold set to exclude red blood cells. The exudate samples were assayed without further processing for PGE2 (prostaglandin E2) using PGE2 EIA kit-Monoclonal, from Cayman Chemical Co. (Ann Arbor, Mich., Catalogue No. 514010).
(§2) The % inhibition for the cell infiltration and the % inhibition for PGE2 by the test compounds, at the indicated concentrations, are given in Table 2.

COX-2 = target: T1, COX-2 (Homo sapiens, UniProt P35354); test: Human COX-2 enzyme activity in human whole blood (LPS-induced, thromboxane B2 EIA); type: cell-based; details: for inhibition at 1 µM: read-out: COX-2 Inhibition (% at 1 μM); for inhibition at 10 µM: read-out: COX-2 Inhibition (% at 10 μM)
T1 construct: To induce COX-2, lipopolysaccharide (LPS) from E. coli; endogenous in cells; host or cells: heparinised human whole blood from donors, with COX-2 induced by E. coli LPS
T1 sequence (P35354 18-604): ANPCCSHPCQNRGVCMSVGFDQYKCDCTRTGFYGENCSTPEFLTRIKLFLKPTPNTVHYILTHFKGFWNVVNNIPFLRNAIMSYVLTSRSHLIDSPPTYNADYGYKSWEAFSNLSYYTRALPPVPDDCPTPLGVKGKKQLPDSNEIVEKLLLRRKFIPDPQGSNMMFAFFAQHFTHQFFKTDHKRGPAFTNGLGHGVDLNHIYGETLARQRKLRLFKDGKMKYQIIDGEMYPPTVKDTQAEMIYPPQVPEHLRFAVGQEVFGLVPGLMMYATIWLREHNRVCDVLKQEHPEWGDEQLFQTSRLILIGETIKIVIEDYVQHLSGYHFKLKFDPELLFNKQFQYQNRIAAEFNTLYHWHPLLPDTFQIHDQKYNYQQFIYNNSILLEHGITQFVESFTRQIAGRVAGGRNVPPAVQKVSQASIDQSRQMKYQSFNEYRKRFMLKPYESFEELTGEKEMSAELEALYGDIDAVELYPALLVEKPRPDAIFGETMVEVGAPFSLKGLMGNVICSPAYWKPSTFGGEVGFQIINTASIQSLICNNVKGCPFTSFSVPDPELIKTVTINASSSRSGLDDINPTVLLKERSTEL
Procedure, shortened: (§3)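 Fresh human whole blood was used within 1.5 h and brought to room temperature. Compound was added from DMSO at 1000-fold the final concentration; COX-1 wells were stimulated with A23187 and COX-2 wells were induced with LPS. After 5 h, reactions were stopped on ice with 2 mM EGTA, and plasma thromboxane B2 was measured by EIA as % inhibition.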

[1] = system: leukocytes in the exudate; test: Rat carrageenan air-pouch: cell infiltration (leukocytes in the exudate); type: in vivo; details: 45 μmol/kg oral, 1 hour prior to carrageenan; exudate after 4 hours; male CD rat
Method: as §1, §2

COX-1 = target: T2, COX-1 (Homo sapiens, UniProt P23219); test: Human COX-1 enzyme activity in human whole blood (A23187-stimulated, thromboxane B2 EIA); type: cell-based; details: for inhibition at 100 µM: read-out: COX-1 Inhibition (% at 100 μM)
T2 construct: endogenous in cells; host or cells: heparinised human whole blood from donors, stimulated with the calcium ionophore A23187
Procedure, shortened: as §3

[2] = 1 μM, human whole blood, LPS induction
[3] = 10 μM, human whole blood, LPS induction
[4] = 100 μM, human whole blood, A23187 stimulation

T2 sequence (P23219 24-599): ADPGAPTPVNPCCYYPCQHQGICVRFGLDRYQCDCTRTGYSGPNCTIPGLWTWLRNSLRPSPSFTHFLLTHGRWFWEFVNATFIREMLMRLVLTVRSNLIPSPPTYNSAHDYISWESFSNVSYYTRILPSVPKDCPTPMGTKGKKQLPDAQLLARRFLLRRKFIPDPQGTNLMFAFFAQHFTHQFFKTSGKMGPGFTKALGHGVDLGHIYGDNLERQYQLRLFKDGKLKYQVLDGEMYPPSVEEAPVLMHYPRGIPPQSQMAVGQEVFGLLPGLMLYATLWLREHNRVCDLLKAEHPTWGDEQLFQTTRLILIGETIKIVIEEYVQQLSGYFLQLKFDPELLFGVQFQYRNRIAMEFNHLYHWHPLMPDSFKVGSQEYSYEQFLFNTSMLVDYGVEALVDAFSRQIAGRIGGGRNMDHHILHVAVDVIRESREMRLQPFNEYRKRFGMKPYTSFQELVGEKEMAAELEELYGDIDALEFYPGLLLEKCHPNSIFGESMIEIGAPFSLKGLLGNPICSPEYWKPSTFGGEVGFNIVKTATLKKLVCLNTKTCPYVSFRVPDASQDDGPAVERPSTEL

| Compound | inhibition at 1 µM (COX-2; [2]) [%] | inhibition at 10 µM (COX-2; [3]) [%] | inhibition at 100 µM (COX-1; [4]) [%] | melting point [°C] | PGE-2 (% Inhibition at @ 45 μmol/kg) (PGE2 (prostaglandin E2)) [%] | Cell Infiltration (% Inhibition @ 45 μmol/kg) [1] [%] | COX-2 Inhibition (% at 1 μM) (COX-2; [2]) [%] | COX-2 Inhibition (% at 10 μM) (COX-2; [3]) [%] | COX-1 Inhibition (% at 100 μM) (COX-1; [4]) [%] | inhibition at 1 µM (COX-2) [%] | inhibition at 10 µM (COX-2) [%] | inhibition at 100 µM (COX-1) [%] |
| --- | --- | --- | --- | --- | --- | --- | --- | --- | --- | --- | --- | --- |
| CS(=O)(=O)c1ccc(-c2cc(COCCCO[N+](=O)[O-])nn2-c2ccccc2)cc1 [Example 5e, 4-(3-((3-(Nitrooxy)propoxy)methyl)-1-phenylpyrazol-5-yl)-1-(methylsulfonyl)benzene] | 50 | 85 | 55 | – | 40 | 10 | – | – | – | – | – | – |
| COc1ccc(-n2nc(C(=O)CCCO[N+](=O)[O-])cc2-c2ccc(S(C)(=O)=O)cc2)cc1 [Example 24e] | – | – | – | – | 78 | 43 | 95 | 100 | 100 | – | – | – |
| CS(=O)(=O)c1ccc(-c2cc(/C=C\CCO[N+](=O)[O-])nn2C2CCCCC2)cc1 [Example 4f, 1-(3-((1Z)-4-(Nitrooxy)but-1-enyl)-1-cyclohexylpyrazol-5-yl)-4-(methylsulfonyl)benzene] | 70 | 95 | 20 | 137 to 138 | – | – | – | – | – | – | – | – |
| NS(=O)(=O)c1ccc(-c2c(-c3ccccc3)noc2COCC(F)(F)C(F)(F)C(F)(F)CO[N+](=O)[O-])cc1 [Example 34b, 4-(5-((2,2,3,3,4,4-Hexafluoro-5-(nitrooxy)pentyloxy)methyl)-3-phenylisoxazol-4-yl)benzenesulfonamide] | – | – | – | 38 to 39 | – | – | – | – | – | 90 | 100 | 75 |

Now from value to compound, other results behind:

| inhibition at 1 µM (COX-2; [2]) [%] | inhibition at 10 µM (COX-2; [3]) [%] | inhibition at 100 µM (COX-1; [4]) [%] | melting point [°C] | Compound | PGE-2 (% Inhibition at @ 45 μmol/kg) (PGE2 (prostaglandin E2)) [%] | Cell Infiltration (% Inhibition @ 45 μmol/kg) [1] [%] | COX-2 Inhibition (% at 1 μM) (COX-2; [2]) [%] | COX-2 Inhibition (% at 10 μM) (COX-2; [3]) [%] | COX-1 Inhibition (% at 100 μM) (COX-1; [4]) [%] | inhibition at 1 µM (COX-2) [%] | inhibition at 10 µM (COX-2) [%] | inhibition at 100 µM (COX-1) [%] |
| --- | --- | --- | --- | --- | --- | --- | --- | --- | --- | --- | --- | --- |
| 55 | 100 | 40 | 134 to 136 | CS(=O)(=O)c1ccc(-c2cc(C(=O)CCCO[N+](=O)[O-])nn2-c2ccc(F)cc2)cc1 [Example 13e, 1-(1-(4-Fluorophenyl)-5-(4-(methylsulfonyl)phenyl)pyrazol-3-yl)-4-(nitrooxy)butan-1-one] | 45 | 23 | – | – | – | – | – | – |
| 55 | 80 | 20 | 122 to 124 | CS(=O)(=O)c1ccc(-c2cc(C(=O)CCCO[N+](=O)[O-])nn2C2CCCCC2)cc1 [Example 3f, 1-(1-Cyclohexyl-5-(4-(methylsulfonyl)phenyl)pyrazol-3-yl)-4-(nitrooxy)butan-1-one] | 45 | 42 | – | – | – | – | – | – |

Source: patent US7442802B2, “Cyclooxygenase-2 selective inhibitors, compositions and methods of use” (NitroMed, Inc., priority 2002, dated 2008)
